Consider eleven compounds from EP0510235A1, “Novel benzoxazine or benzothiazine derivatives and process for the preparation of the same” (DONG-A PHARM. CO., LTD., priority 1991, dated 1992).

The structures appear in SMILES notation. Several values for one entry are separate records, joined by “and”; a condition that tells them apart may be missing. Identical values can stand only once. Where only a bound is given, the exact number is not on record here.

Data set [1] deals with blood-perfused sino-atrial preparation. Put plainly: Determination of sinus rate on blood-perfused sino-atrial preparation. Also noted: species or system dog. To be noted: vs sinus rate prior to injection; for activation at 0.003 mg: dose 3.0 ug; for activation at 0.01 mg: dose 10.0 ug; for activation at 0.03 mg: dose 30.0 ug; for activation at 0.0001 mg: dose 0.1 ug; for change of sinus rate(%): listed as 8-methyl-6-(4-met-hylimidazol-1-)-( 4H)-3,1-benzothia-zin-2-one. Here is the method: Mongrel dogs of either sex weighing 7-12kg were anesthetized with sodium pentoba rbital(30mg/kg i.v.). Heparin of 1000 unit/kg was administered to each animal intravenously and the animals were exsanguinated. Heart was removed and put in Krebs-Henselelt solution. Catheter was inserted into blood vessel between right coronary artery and SA nodes. Right artrium and catheter were together removed. Blood supplied from carotid artery of donor dog of either sex weighing 15-25kg, was supplied to blood vessel cather from right coronary artery and SA node under constant blood pressure of 100mmHg by use of Peristaltic pump. The resting tension of right atrial muscle was made to 2g. The sinus rate triggered by spontaneous contraction of atrial muscle was determined on Narco physiograph(Narcotrace 4). Detailed method was reported by S. Chiba, et al. in Japanese Pharmacology 25, 433-439(1975). Doses of test compounds were injected into flowing blood in gum tube connected to the near part of the catheter inserted into right coronary artery. The effects on sinus rate were shown as percent compared with the sinus rate prior to the injection of the test compounds.

Data set [2] has as its system blood perfused papillary muscle preparation. In words: Determination of contractile power on blood perfused papillary muscle preparation. Also noted: species or system dog. Particulars: for ED 30: dose giving 30% increase of developed tension, least-square method. On the procedure:
Dogs of either sex weighing 7-12kg were anesthetized with sodium pentobarbital (30mg/kg,i.v.). Heparin of 1000 unit/kg was administered to each animal intravenously. The animals were exsanguinated and heart was removed. The preparation was perfused through the cannulated anterior septal artery(ASA) with arterial blood from a donor dog at constant pressure of about 100 mmHg. Donor dogs were anesthetized with sodium pentobarbital (30mg/kg, i.v.). Heparin of 1000 units/kg was administered intravenously. The papillary muscle was stimulated with rectangular pulses of 5- ms duration and about 1.5 times the threshold voltage at a rate of 120 stimuli/min through bipolar electrodes.Resting tension was made to 2 g.The developed tension of papillary muscle was determined by Isometric tresducer.Detailed method was reported by Matsumoto in Am. J. Physiol. 218, 1459-1463 (1970). Test compound at the doses of 10-30ul was injected in flowing blood in the gum tube connected to catheter. The inotropic effect of the test compounds was shown by change percent of developed tension compared with that prior to the administration of the test compounds.ED₃₀ value was determined by least-square method and the results were shown in the Table 1.

Data set [3] in a line: Acute toxicity test in rats, oral. To be noted: rat, in vivo. Here is the method:
Acute toxicity test of 6-(4-methylimidazol-1-yl)-(4H)-3,1-benzoxazin-2-one was conducted in Spraque-Dawley rats. The test compound was suspended in 5% arabic gum and was administered orally to six rats at a dose of 300mg/kg body weight.
Accordingly, LD 50 of the compound is 300 mg/kg or more.

Data set [4] deals with cyclic AMP phosphodiesterase. In words: Effect on cyclic AMP phosphodiesterase isolated from dog's heart. In kind it is biochemical. To be noted: substrate 1.0 uM; for Inhibitory effect on PDE activity: values fall with concentration. On the procedure: Dogs weighing 10 kg were anesthetized with sodium pentobarbital and heparin was administered intravenously. Heart was removed. Two to four grams of left ventricular muscle was obtained and the tissue was rinsed in ice-cold salin. Left ventricular muscle was homogenized in10 volumes of homogenzing buffer(Tris-HCl, pH 7.8). Homogenate was then centrifuged at 100,000 X g for 40 minutes, after which the supernatent was removed. The pellet was resuspended in homogenizing buffer, centrifuged as before and the supernatent obtained as discarded. The pellet was resuspended in 10 volumes of homogenizing buffer containing Triton X-100 and Brij 30, and incubated overnight at 4°C. The detergent-extracted proteins were then separated by centrifugation at 100,000 X g for 40 monutes. The detergent-extracted protein was dialyzed against 70mM sodium acetate /5mM 2-mercaptoethanol(pH 6.5) for 5 hours. The dialyzed extract was applied to a DEAE-cellulose column and eluted using a 70-1000 mM sodium acetate gradient. Appropriate fractions were pooled and concentrated using Amicon ultrafiltration cell. Following concentration, the protein was diluted with ethylene glycol and stored at -20°C.
Phosphodiesterase activity was measured in a reaction medium (40mM Tris-HCl, pH 8.0). The concentration of substrate was 1.0 uM. The IC 50 values( concentration which produced 50% inhibition of substrate hydrolysis) for the various compounds examined were determined from concentration-response curves. Detailed method of this experiment was reported in J.Mol.Cell Cardiol. 19, 1025-1036 (1987).

The nature of data set [5]: Acute toxicity test in ICR mouse, intravenous. Particulars: in vivo. Here is the method: Acute toxicity test of 6-(4-methylimidazol-1-yl)-(4H)-3,1-benzothiazin-2-one was conducted in ICR mouse. The test compound was dissolved in a mixed solvent of saline and DMF (2:1) and was administered intraveneously to five mice at a dose of 30mg/kg body weight. […] Accordingly, LD₅₀ of the cmpound is 30mg/kg or more.

The nature of data set [6]: Acute toxicity test in mice, oral. To be noted: mouse, in vivo. Here is the method:
Acute toxicity test of 6-(4-methylimidazol-1-yl)-(4H)-3,1-benzothiazine-2-thione was conducted in BALB/C mice. The test compound was suspended in 5% arabic gum solution and administered orally to five mice at a dose of 200 mg/kg body weight by gastric tubing. […] Accordingly, LD₅₀ of the compound is 200mg/kg or more.

Where [7] appears, read: Canis lupus familiaris, dose 1.0 ug, read-out: change of sinus rate(%).
[8] abbreviates: Canis lupus familiaris, read-out: change of sinus rate(%).
Where [9] appears, read: at the ED 30 dose (30% by definition).

As to `Cc1cn(-c2ccc3c(c2)COC(=O)N3)c(C)n1` [6-(2,4-dimethylimidzol-1-yl)-(4H)-3,1-benzoxazin-2-one], in data set [1] (setting [7]), the activation at 0.001 mg worked out at 0%. Moreover, in data set [1] (setting [8]), the activation at 0.003 mg worked out at 0%, the activation at 0.01 mg turned out to be 0% and the activation at 0.03 mg was found to be 1.67%. The “ED 30” value in data set [2] is “ED 30 : 81.89 ug”.

As to `CCc1nc(C)cn1-c1ccc2c(c1)COC(=O)N2` [6-(2-ethyl-4-methylimidazol-1-yl)-(4H)-3,1-benzoxazin-2-one], the activation at 0.001 mg in data set [1] (setting [7]) is 0%. In data set [1] (setting [8]), the activation at 0.003 mg was 0%, the activation at 0.01 mg was found to be 0.83% and the activation at 0.03 mg is 1.65%. Further, in data set [2], the “ED 30” value is recorded as “ED 30 : 269 ug”.

For `Cc1nccn1-c1ccc2c(c1)COC(=O)N2` [6-(2-methylimidazol-1-yl)-(4H)-3,1-benzoxazine-2-one], the activation at 0.001 mg in data set [1] (setting [7]) is 0%. In data set [1] (setting [8]), the activation at 0.003 mg turned out to be 0%, the activation at 0.01 mg was found to be 0.86% and the activation at 0.03 mg turned out to be 3.42%. Further, the “ED 30” value in data set [2] is on record as “ED 30 > 1000 ug”.

Broadly, the LD50 is the dose at which mortality reaches 50%. High values mean lower toxicity, low ones greater toxicity. Usually IC50 stands for the concentration that gives 50% inhibition. Read a low IC50 as inhibition by little substance. Turning to `Cc1cn(-c2ccc3c(c2)COC(=O)N3)cn1` [6-(4-methylimidazol-1-yl)(4H)-3,1-benzoxazin-2-one], the LD50 in data set [3] is ≥ 300 mg/kg. Moreover, the activation at 0.001 mg in data set [1] (setting [7]) is 0%. For the same compound, in data set [1] (setting [8]), the activation at 0.003 mg was found to be 2.52%. Further, the activation at 0.01 mg in data set [1] (setting [8]) stood at 5.04%. For the same compound, in data set [2], the “ED 30” value is on record as “ED 30 : 10.4 ug”. Besides, the half-maximal inhibitory concentration (IC50) in data set [4] (50% inhibition of substrate hydrolysis) stood at 12.8 µM. Further, the “Inhibitory effect on PDE activity” value in data set [4] (test compound 0.1 uM) is on record as 95.1; in data set [4] (test compound 1 uM), 77.5; in data set [4] (test compound 10 uM) it was 51.7; in data set [4] (test compound 100 uM), 35.8.

Regarding `Cc1cn(-c2ccc3c(c2)CSC(=O)N3)cn1` [6-(4-methylimidazol-1-yl)-(4H)-3,1-benzothiazin-2-one], the activation at 0.003 mg in data set [1] (setting [8]) was 2.3%. Also, in data set [1] (setting [8]), the activation at 0.03 mg is 5.6%. The “change of contractivity(%)” value in data set [2] (setting [9]) was 30%; in data set [2] (dose 1.0 ug injected into perfusing blood, developed tension vs before administration), 0.0%; in data set [2] (dose 3.0 ug injected into perfusing blood, developed tension vs before administration), 7.2% and 1.5%; in data set [2] (dose 10.0 ug injected into perfusing blood, developed tension vs before administration), 20.5% and 11.5%; in data set [2] (dose 30.0 ug injected into perfusing blood, developed tension vs before administration), 30.7% and 23.3%. In addition, the 50% lethal dose (LD50) in data set [5] was ≥ 30 mg/kg.

Consider `Cc1cn(-c2ccc3c(c2)CSC(=S)N3)cn1` [6-(4-methylimidazol-1-yl)-(4H)-3,1-benzothiazine-2-thione], for which, in data set [6], the median lethal dose (LD50) was ≥ 200 mg/kg.

For the compound `O=C1Nc2ccc(-n3cnc4ccccc43)cc2CO1` [6-(benzimidazol-1-yl)-(4H)-benzoxazin-2-one], the activation at 0.001 mg in data set [1] (setting [7]) came out at 0%. For the same compound, in data set [1] (setting [8]), the activation at 0.003 mg amounted to 0%. In data set [1] (setting [8]), the activation at 0.01 mg was found to be 0.3%. Also, the activation at 0.03 mg in data set [1] (setting [8]) was found to be 0.75%. Besides, in data set [2], the “ED 30” value is “ED 30 > 1000 ug”. Moreover, the “Inhibitory effect on PDE activity” value in data set [4] (test compound 0.1 uM, listed as 6-(benzimidazol-1-yl)-(4H)-3,1-benzoxazin-2-one) worked out at 95.5; in data set [4] (test compound 1 uM, listed as 6-(benzimidazol-1-yl)-(4H)-3,1-benzoxazin-2-one), 90.4; in data set [4] (test compound 10 uM, listed as 6-(benzimidazol-1-yl)-(4H)-3,1-benzoxazin-2-one), 72.3; in data set [4] (test compound 100 uM, listed as 6-(benzimidazol-1-yl)-(4H)-3,1-benzoxazin-2-one) it was 49.5.

Regarding `O=C1Nc2ccc(-n3ccnc3)cc2CS1` [6-(imidazol-1-yl)-(4H)-3,1-benzothiazin-2-one], the “change of contractivity(%)” value in data set [2] (setting [9]) stood at 30%.

`O=C1Nc2ccc(-n3ccnc3)cc2CO1` [6-(imidazol-1-yl)-(4H)-3,1-benzoxazin-2-one]: the activation at 0.001 mg in data set [1] (setting [7]) stood at 0%. The activation at 0.003 mg in data set [1] (setting [8]) is 0.84%. The activation at 0.01 mg in data set [1] (setting [8]) stood at 2.52%. Also, in data set [1] (setting [8]), the activation at 0.03 mg is 6.67%. For the same compound, in data set [2], the “ED 30” value was “ED 30 > 1000 ug”. In addition, the “Inhibitory effect on PDE activity” value in data set [4] (test compound 0.1 uM) is reported as 98.4; in data set [4] (test compound 1 uM), 74.5; in data set [4] (test compound 10 uM) it was 52.2; in data set [4] (test compound 100 uM), 28.8.

Turning to `Cc1cn(-c2cc(C)c3c(c2)CSC(=O)N3)cn1` [8-methyl-6-(4-methylimidazol-1-yl)-(4H)-3,1-benzothiazin-2-one], the activation at 0.0001 mg in data set [1] (setting [8]) amounted to 1.7%. Further, the activation at 0.003 mg in data set [1] (setting [8]) came to 3.3%. For the same compound, the figures for the “change of sinus rate(%)” value in data set [1] (dose 0.3 ug) and in data set [1] (dose 1.0 ug) were 4.8% and 8.3%, respectively. Also, in data set [2] (setting [9]), the “change of contractivity(%)” value amounted to 30.0%. The entries for the “ED 30” value in data set [2] and in data set [2] (listed as 8-methyl-6-(4-met-hylimidazol-1-)-( 4H)-3,1-benzothia-zin-2-one) were “ED 30 = 5.0 ug” and “ED 30 = 0.6 ug”, respectively.

Take `Cc1cn(-c2cc(C)c3c(c2)COC(=O)N3)cn1` [8-methyl-6-(4-methylimidazol-1-yl)-(4H)-3,1-benzoxazin-2-one]: in data set [1] (setting [8]), the activation at 0.0001 mg was 0.8% and the activation at 0.003 mg turned out to be 5.8%. The activation at 0.0003 mg in data set [1] (Canis lupus familiaris, dose 0.3 ug, read-out: change of sinus rate(%)) was determined as 1.7%. Moreover, the activation at 0.001 mg in data set [1] (setting [7]) worked out at 6.6%. Also, the “change of contractivity(%)” value in data set [2] (setting [9]) was 30.0%. Besides, the “ED 30” value in data set [2] is “ED 30 = 1.2 ug”.
